These results are taken from patent publication US20240269298A1, “PHOSPHONYL DERIVATIVE, AND COMPOSITION AND PHARMACEUTICAL APPLICATION THEREOF” (XIZANG HAISCO PHARMACEUTICAL CO., LTD., priority 2021, published 2024).

Read-outs that look alike come from different tables or passages of the source.

The subject of one test is A431 (EGFR-WT) cells. Kind of test: Inhibitory activity on proliferation of A431 (EGFR-WT) cells (CTG, 72 h). Conditions: Homo sapiens, A-431. Format: cell-based. As for the experimental part:
NCI-H1975 (EGFR-L858R-T790M) and A431 (EGFR-WT) cells were purchased from ATCC and cultured in an incubator at 37° C. with 5% CO2, and the culture mediums were RPMI1640+10% FBS and DMEM+10% FBS, respectively. On the first day, NCI-H1975 (EGFR-L858R-T790M) and A431 (EGFR-WT) cells in the logarithmic phase were collected, and viable cells were counted using an automatic cell analyzer (countstar). The cell suspensions were adjusted with the culture mediums and plated on a 96-well cell culture plate at 1000 cells/well for NCI-H1975 (EGFR-L858R-T790M) cells and at 3000 cells/well for A431 cells. The next day, the culture mediums were aspirated, and 90 μL of fresh culture mediums and 10 μL of the compounds at different concentrations were added to each well, wherein the final concentration of DMSO in each well was 0.1%. The plate was cultured in the incubator at 37° C. with 5% CO2 for 72 hours. After 72 hours of drug treatment, 50 μL of CTG solution (promega, G7572), which was already pre-melted and equilibrated to room temperature, was added to each well, and the mixtures were uniformly mixed for 2 min using a microplate shaker. The plate was placed at room temperature for 10 min, and then […] signal values were measured using a microplate reader (PHERAstar FSX).
Surviving cells % was calculated based on Vsample/Vvehicle control×100%, wherein Vsample was the readout of the drug-treated group, and Vvehicle control was the average value of the vehicle control group. Using the origin 9.2 software and nonlinear regression model, S-shaped dose-survival curves were plotted, and IC50 values were calculated.

The subject of test [1] is NCI-H1975 (EGFR-L858R-T790M) cells. Kind of test: Inhibitory activity on proliferation of NCI-H1975 (EGFR-L858R-T790M) cells (CTG, 72 h). Format: cell-based. Conditions: Homo sapiens. The method in brief:
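Cells plated at 1000/well (NCI-H1975, RPMI1640+10% FBS) or 3000/well (A431, DMEM+10% FBS), dosed next day with compounds (0.1% DMSO final) for 72 h at 37 °C, 5% CO2. Viability by CTG luminescence, normalised to vehicle control; IC50 from nonlinear-regression dose-survival curves.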

Where [2] appears, read: read-out: IC50 (value in brackets).

What is called IC50 is the concentration that gives 50% inhibition. Consider `COc1cc(N2CCC3(CC2)CC(N2CCN(c4ccc5c(c4)C(=O)N(C4CCC(=O)NC4=O)C5=O)CC2)C3)c(-c2cnn(C)c2)cc1Nc1ncc(Br)c(Nc2ccc(-c3ccccc3)cc2P(C)(C)=O)n1` (stereo not drawn) [Compound 83, 5-(4-(7-(4-((5-bromo-4-((3-(dimethylphosphoryl)-[1,1′-biphenyl]-4-yl)amino)pyrimidin-2-yl)amino)-5-methoxy-2-(1-methyl-1H-pyrazol-4-yl)phenyl)-7-azaspiro[3.5]nonan-2-yl)piperazin-1-yl)-2-(2,6-dioxopiperidin-3-yl)isoindoline-1,3-dione], for which the IC50 was not below 10 µM with A431 (EGFR-WT) cells, 0.1 to 0.5 µM in test [1] (read-out: IC50 (class symbol)) and 0.126 µM in test [1] (setting [2]).

Regarding `COc1cc(N2CCC3(CCC(N4CCN(c5ccc6c(c5)C(=O)N(C5CCC(=O)NC5=O)C6=O)CC4)CC3)CC2)c(-c2cnn(C)c2)cc1Nc1ncc(Br)c(Nc2ccc(-c3ccccc3)cc2P(C)(C)=O)n1` (stereo not drawn) [Compound 82, 5-(4-(3-(4-((5-bromo-4-((3-(dimethylphosphoryl)-[1,1′-biphenyl]-4-yl)amino)pyrimidin-2-yl)amino)-5-methoxy-2-(1-methyl-1H-pyrazol-4-yl)phenyl)-3-azaspiro[5.5]undecan-9-yl)piperazin-1-yl)-2-(2,6-dioxopiperidin-3-yl)isoindoline-1,3-dione], the IC50 in the test with A431 (EGFR-WT) cells was not below 10 µM; in test [1] (read-out: IC50 (class symbol)), less than 0.1 µM; in test [1] (setting [2]) it was 0.09 µM.

Consider `COc1cc(N2CCC(CN3CC4CN(c5ccc6c(c5)C(=O)N(C5CCC(=O)NC5=O)C6=O)CC4C3)CC2)c(-c2cnn(C)c2)cc1Nc1ncc(Br)c(Nc2ccc(-c3ccccc3)cc2P(C)(C)=O)n1` (stereo not drawn) [Compound 78, 5-(5-((1-(4-((5-bromo-4-((3-(dimethylphosphoryl)-[1,1′-biphenyl]-4-yl)amino)pyrimidin-2-yl)amino)-5-methoxy-2-(1-methyl-1H-pyrazol-4-yl)phenyl)piperidin-4-yl)methyl)hexahydropyrrolo[3,4-c]pyrrol-2(1H)-yl)-2-(2,6-dioxopiperidin-3-yl)isoindoline-1,3-dione], for which the IC50 in the test with A431 (EGFR-WT) cells was not below 10 µM; in test [1] (read-out: IC50 (class symbol)), less than 0.1 µM; in test [1] (setting [2]) it was 0.051 µM.

In the case of `COc1cc(N2CCC3(CCN(c4ccc5c(c4)C(=O)N(C4CCC(=O)NC4=O)C5=O)CC3)CC2)c(-c2cnn(C)c2)cc1Nc1ncc(Cl)c(Nc2ccc(F)cc2P(C)(C)=O)n1` (stereo not drawn) [Compound 162, 5-(9-(4-((5-chloro-4-((2-(dimethylphosphoryl)-4-fluorophenyl)amino)pyrimidin-2-yl)amino)-5-methoxy-2-(1-methyl-1H-pyrazol-4-yl)phenyl)-3,9-diazaspiro[5.5]undecan-3-yl)-2-(2,6-dioxopiperidin-3-yl)isoindoline-1,3-dione], the values for the IC50 (in the test with A431 (EGFR-WT) cells; in test [1] (read-out: IC50 (class symbol)); in test [1] (setting [2])) were not below 10 µM, 0.1 to 0.5 µM and 0.134 µM, respectively.

In the case of `COc1cc(N2CCC(C3CCN(CC4CCN(c5ccc6c(c5)C(=O)N(C5CCC(=O)NC5=O)C6=O)CC4)CC3)CC2)c(-c2cnn(C)c2)cc1Nc1ncc(Br)c(Nc2ccc(-c3ccccc3)cc2P(C)(C)=O)n1` (stereo not drawn) [Compound 36, 5-(4-((1′-(4-((5-bromo-4-((3-(dimethylphosphoryl)-[1,1′-biphenyl]-4-yl)amino)pyrimidin-2-yl)amino)-5-methoxy-2-(1-methyl-1H-pyrazol-4-yl)phenyl)-[4,4′-bipiperidin]-1-yl)methyl)piperidin-1-yl)-2-(2,6-dioxopiperidin-3-yl)isoindoline-1,3-dione], the 50% inhibitory concentration (IC50) in the test with A431 (EGFR-WT) cells is not below 10 µM; in test [1] (read-out: IC50 (class symbol)), 0.1 to 0.5 µM; in test [1] (setting [2]), 0.165 µM.

Take `COc1cc(N2CCN(C3CCN(CC4CCN(c5ccc6c(c5)C(=O)N(C5CCC(=O)NC5=O)C6=O)CC4)CC3)CC2)c(-c2cnn(C)c2)cc1Nc1ncc(Br)c(Nc2ccc(-c3ccccc3)cc2P(C)(C)=O)n1` (stereo not drawn) [Compound 42, 5-(4-((4-(4-(4-((5-bromo-4-((3-(dimethylphosphoryl)-[1,1′-biphenyl]-4-yl)amino)pyrimidin-2-yl)amino)-5-methoxy-2-(1-methyl-1H-pyrazol-4-yl)phenyl)piperazin-1-yl)piperidin-1-yl)methyl)piperidin-1-yl)-2-(2,6-dioxopiperidin-3-yl)isoindoline-1,3-dione]: the half-inhibitory concentration (IC50) with A431 (EGFR-WT) cells is not below 10 µM; in test [1] (read-out: IC50 (class symbol)), less than 0.1 µM; in test [1] (setting [2]), 0.059 µM.

On to `COc1cc(N2CCC(CN3CCN(c4ccc5c(c4)C(=O)N([C@H]4CCC(=O)NC4=O)C5=O)CC3)CC2)c(-c2cnn(C)c2)cc1Nc1ncc(Br)c(Nc2ccc(C3CC3)cc2P(C)(C)=O)n1` [Compound 170], for which the results for the concentration for half-maximal inhibition (IC50) (in the test with A431 (EGFR-WT) cells; in test [1] (read-out: IC50 (class symbol)); in test [1] (setting [2])) were not below 10 µM, less than 0.1 µM and 0.047 µM, respectively.

Take `CCn1cc(-c2cc(Nc3ncc(Br)c(Nc4ccc(-c5ccccc5)cc4P(C)(C)=O)n3)c(OC)cc2N2CCC(CN3CCN(c4ccc5c(c4)C(=O)N(C4CCC(=O)NC4=O)C5=O)CC3)CC2)cn1` (stereo not drawn) [Compound 111, 5-(4-((1-(4-((5-bromo-4-((3-(dimethylphosphoryl)-[1,1′-biphenyl]-4-yl)amino)pyrimidin-2-yl)amino)-2-(1-ethyl-1H-pyrazol-4-yl)-5-methoxyphenyl)piperidin-4-yl)methyl)piperazin-1-yl)-2-(2,6-dioxopiperidin-3-yl)isoindoline-1,3-dione]: the IC50 with A431 (EGFR-WT) cells is not below 10 µM; in test [1] (read-out: IC50 (class symbol)), 0.1 to 0.5 µM; in test [1] (setting [2]), 0.209 µM.

Consider `COc1cc(N2CCN(C[C@H]3CCN(c4ccc5c(c4)C(=O)N(C4CCC(=O)NC4=O)C5=O)C3)CC2)c(-c2cnn(C)c2)cc1Nc1ncc(Br)c(Nc2ccc(C3CC3)cc2P(C)(C)=O)n1` (stereo partly drawn) [Compound 121, 5-((R)-3-((4-(4-((5-bromo-4-((4-cyclopropyl-2-(dimethylphosphoryl)phenyl)amino)pyrimidin-2-yl)amino)-5-methoxy-2-(1-methyl-1H-pyrazol-4-yl)phenyl)piperazin-1-yl)methyl)pyrrolidin-1-yl)-2-(2,6-dioxopiperidin-3-yl)isoindoline-1,3-dione], for which the figures for the IC50 (in the test with A431 (EGFR-WT) cells; in test [1] (read-out: IC50 (class symbol)); in test [1] (setting [2])) were not below 10 µM, less than 0.1 µM and 0.016 µM, respectively.

Turning to `COc1cc(N2CCC3(CCN(c4ccc5c(c4)C(=O)N(C4CCC(=O)NC4=O)C5=O)CC3)CC2)c(-c2cnn(C)c2)cc1Nc1ncc(Br)c(Nc2ccccc2P(C)(C)=O)n1` (stereo not drawn) [Compound 164, 5-(9-(4-((5-bromo-4-((2-(dimethylphosphoryl)phenyl)amino)pyrimidin-2-yl)amino)-5-methoxy-2-(1-methyl-1H-pyrazol-4-yl)phenyl)-3,9-diazaspiro[5.5]undecan-3-yl)-2-(2,6-dioxopiperidin-3-yl)isoindoline-1,3-dione], the IC50 in the test on A431 (EGFR-WT) cells is not below 10 µM; in test [1] (read-out: IC50 (class symbol)) it was 0.1 to 0.5 µM; in test [1] (setting [2]) it was 0.109 µM.

For `COc1cc(N2CCC(C(=O)N3CCN(c4ccc5c(c4)C(=O)N(C4CCC(=O)NC4=O)C5=O)CC3)CC2)c(-c2cnn(C)c2)cc1Nc1ncc(Br)c(Nc2ccccc2P(C)(C)=O)n1` (stereo not drawn) [Compound 146, 5-(4-(1-(4-((5-bromo-4-((2-(dimethylphosphoryl)phenyl)amino)pyrimidin-2-yl)amino)-5-methoxy-2-(1-methyl-1H-pyrazol-4-yl)phenyl)piperidine-4-carbonyl)piperazin-1-yl)-2-(2,6-dioxopiperidin-3-yl)isoindoline-1,3-dione], the figures for the half-inhibitory concentration (IC50) (in the test with A431 (EGFR-WT) cells; in test [1] (read-out: IC50 (class symbol)); in test [1] (setting [2])) were not below 10 µM, less than 0.1 µM and 0.095 µM, respectively.

As to `COc1cc(N2CCN(C3CCN(CC4CCN(c5ccc6c(c5)C(=O)N(C5CCC(=O)NC5=O)C6=O)CC4)CC3)CC2)c(-c2cnn(C)c2)cc1Nc1ncc(Cl)c(Nc2ccc(-c3ccccc3)cc2P(C)(C)=O)n1` (stereo not drawn) [Compound 40, 5-(4-((4-(4-(4-((5-chloro-4-((3-(dimethylphosphoryl)-[1,1′-biphenyl]-4-yl)amino)pyrimidin-2-yl)amino)-5-methoxy-2-(1-methyl-1H-pyrazol-4-yl)phenyl)piperazin-1-yl)piperidin-1-yl)methyl)piperidin-1-yl)-2-(2,6-dioxopiperidin-3-yl)isoindoline-1,3-dione], the half-maximal inhibitory concentration (IC50) in the test on A431 (EGFR-WT) cells is not below 10 µM; in test [1] (read-out: IC50 (class symbol)), less than 0.1 µM; in test [1] (setting [2]), 0.055 µM.

As to `COc1cc(N2CCC(N3CCN(CC4CCN(c5ccc6c(c5)C(=O)N(C5CCC(=O)NC5=O)C6=O)CC4)CC3)CC2)c(-c2cnn(C)c2)cc1Nc1ncc(Cl)c(Nc2ccc3nccnc3c2P(C)(C)=O)n1` (stereo not drawn) [Compound 4, 5-(4-((4-(1-(4-((5-chloro-4-((5-(dimethylphosphoryl)quinoxalin-6-yl)amino)pyrimidin-2-yl)amino)-5-methoxy-2-(1-methyl-1H-pyrazol-4-yl)phenyl)piperidin-4-yl)piperazin-1-yl)methyl)piperidin-1-yl)-2-(2,6-dioxopiperidin-3-yl)isoindoline-1,3-dione], the half-maximal inhibitory concentration (IC50) in the test on A431 (EGFR-WT) cells is not below 10 µM; in test [1] (read-out: IC50 (class symbol)), less than 0.1 µM; in test [1] (setting [2]), 0.021 µM.
